Molecules are shown by their SMILES. Values joined by “and” are separate entries in the source; they are usually repeats but may differ in a detail not shown here. Equal entries are not always repeated. Active and inactive are the calls of the source.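 How the source made its calls: active means compounds giving half or more protection of infected cells from virus-caused growth loss, again on retest; inactive means the rest.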

The test system of the assay is CEM cells HIV-1 protection, formazan growth assay. The assay is described as follows: NCI AIDS Antiviral Assay. To be noted: for IC50: measured here: growth of uninfected CEM cells. In a few lines: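 Human CEM cells, uninfected and HIV-1-infected, exposed to five drug concentrations; growth measured by soluble formazan assay and scored as percent protection from infection, with protecting compounds retested.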

For orientation: EC50 means the concentration at which the effect is half-maximal. What is called IC50 is the concentration needed to halve the response being measured. For the molecule `O=C(O)CC12C3C4C5C3C1C5C42` (stereo unspecified), the EC50 was > 575 µM and the IC50 was > 575 µM.

As for `O=S(=O)(c1ccc(Cl)cc1)c1ccccc1C1=NCCN1`, the EC50 is > 200 µM and the IC50 was > 200 µM.

Regarding `CC1(C)SC2C(NC(=O)C(N)c3ccccc3)C(=O)N2C1C(=O)O` (stereo unspecified), the EC50 was > 200 µM and the IC50 is > 200 µM.

With `N#Cc1cccc(/C=C/C(=O)c2ccccc2)c1`, the EC50 is > 22.4 µM and the IC50 came out at 4.07 µM. Taken in the same sequence, the figures for `C=CC[C@@]1(OC(C)=O)C(=O)C(=O)OC1C1COC(C)(C)O1` (stereo partly specified) were > 200 µM and 11.2 µM. Taken in the same sequence, the figures for `Cc1[nH]nc(-c2ccon2)c1N=O` were > 200 µM and 8.91 µM.

Consider `Cc1cc(C)nc(NC(=O)Nc2cc(Cl)ccc2C)c1`, for which the EC50 is > 200 µM and the IC50 was > 200 µM. Turning to `CCOP(=O)(Nc1ccc(-c2ccc(N)cc2)cc1)OCC`, the EC50 is > 200 µM and the 50% inhibitory concentration (IC50) came out at 170 µM. For `O=S(=O)(C/C(=N\O)c1ccccc1)c1ccccc1` the same measures were > 324 µM and 182 µM. In the case of `CCCCC(O)(Cc1ccccc1)c1ccc(OCCN(CC)CC)cc1` (stereo unspecified), the EC50 is > 200 µM and the 50% inhibitory concentration (IC50) came to 14.1 µM. For the molecule `CCCN(CCCCC(NC(C)=O)C(=O)NCc1ccccc1)C(=O)NC` (stereo unspecified), the EC50 is > 661 µM and the IC50 is > 661 µM. As for `CC(=O)Oc1cc(C)c2c(c1)CCC1C3CCC(OC(C)=O)C3(C)CC(O[N+](=O)[O-])C21O` (stereo unspecified), the EC50 was > 200 µM and the IC50 is > 200 µM. Take `O=c1oc(-c2ccccc2)c(-c2ccccc2)n1-c1ccc(Br)cc1`: the EC50 was > 100 µM and the IC50 is > 100 µM. Consider `CCOC(=O)NC(=O)c1cn(CC(=O)NCC(=O)NCC(=O)N2CCN(CCn3c(C)nc(C(N)=O)c3N)CC2)c(=O)[nH]c1=O`, for which the result was inactive. Turning to `O=c1[nH]c2ccccc2c(O)c1N=Nc1ccc(N=Nc2ccc(S(=O)(=O)O)cc2)cc1`, the EC50 is > 200 µM and the half-inhibitory concentration (IC50) was > 200 µM. On to `COC(=O)c1ccc(N/C=C(/C#N)c2ccsc2)cc1`, for which the EC50 is > 47.9 µM and the concentration for half-maximal inhibition (IC50) was > 47.9 µM. Turning to `Cc1cc2c(c(C(N)=O)c1C)-c1ccccc1C2=O`, the EC50 was > 102 µM and the IC50 is > 102 µM. Consider `CC1(C)OCC2OC3([C@@H]4OC(C)(C)O[C@H]4CO)OC(C)(C)OC3C2O1` (stereo partly specified), for which the EC50 is > 200 µM and the half-maximal inhibitory concentration (IC50) is > 200 µM. On to `CC1=Nc2ccccc2NC(C)(C)C1`, for which the EC50 was > 955 µM; the IC50 was 56.2 µM and 37.2 µM and > 200 µM. With `COc1ccccc1/C=C1\N=C(c2ccccc2)OC1=O`, the EC50 is > 200 µM and the IC50 came out at 17.4 µM. Regarding `Cc1cccc(Nc2c3c(nc4ccccc24)CCCCC3)c1`, the result was inactive.

Take `O=[N+]([O-])c1cc(C2SCc3nc4ccccc4n32)ccc1Cl` (stereo unspecified): the outcome was inactive. Take `CCOC(=O)C(=O)Nc1ccc(C)cc1C`: the EC50 is > 1120 µM and the concentration for half-maximal inhibition (IC50) came to 646 µM. For `O=C1/C(=C/c2ccc3c(c2)OCCO3)CCC/C1=C\c1ccc2c(c1)OCCO2` the same measures were > 6.92 µM and > 6.92 µM. For the molecule `O=C(Nc1cccc(O)c1)C(=O)C1C(=O)NC(=S)NC1=O`, the EC50 is > 813 µM and the IC50 was > 813 µM. For `COC(=O)c1ccc(NCC2=CC(=O)C=CC2=O)cc1`, the EC50 was > 200 µM and the IC50 was 1 µM. For `NC(CCOCCP(=O)(O)CCC1C=CC=CC1)C(=O)O` (stereo unspecified), the EC50 is > 200 µM and the concentration for half-maximal inhibition (IC50) was > 200 µM. As to `O=[N+]([O-])c1ccc2nc(/C=C(\O)c3ccccc3)c(NC34CC5CC(CC(C5)C3)C4)nc2c1`, the EC50 is > 200 µM and the concentration for half-maximal inhibition (IC50) is 182 µM. Regarding `c1ccc(-c2cc3ccc4cccnc4c3o2)cc1`, the EC50 is > 107 µM and the IC50 was found to be 56.2 µM. Taken in the same sequence, the figures for `CC(C)=CCC/C(C)=C/CC/C(C)=C/CC/C=C(\C)CC/C=C(\C)CCC1SC1(C)C` (stereo unspecified) were > 200 µM and > 200 µM. Taken in the same sequence, the figures for `CC(=O)OC[C@H]1O[C@@H](O[C@H]2[C@H](OC(C)=O)C=CO[C@@H]2COC(C)=O)C(OC(C)=O)[C@H]2OC(C)(C)O[C@H]21` (stereo partly specified) were > 200 µM and 69.2 µM. `CCOC(=O)CCc1c(C)c2c(OC)cc(OC)cc2oc1=O`: the outcome was inactive. `O=C1NC(=O)/C(=C/c2ccc(S(=O)(=O)N/N=C\C(O)C(O)C(O)CO)cc2)N1` (stereo unspecified): the EC50 is > 200 µM; the IC50 was 135 µM and 191 µM.

For `CCC(CCCC[C@@H]1CC[C@H]2CC(=O)C[C@@H]12)OC` (stereo partly specified), the EC50 is > 200 µM and the IC50 was 151 µM. As to `CCCN(CCC)C(=S)N/N=C/c1cccc(C)n1`, the EC50 is > 200 µM and the IC50 came to 0.0631 µM. Turning to `NC(=S)C(=S)N=Cc1c(N)[nH]n(-c2ccccc2)c1=O`, the EC50 is > 120 µM and the IC50 was determined as 70.8 µM.

Take `CN(C)C(=O)/N=C1\SC(=Nc2ccccc2)C(=Nc2ccccc2)N1c1ccc([N+](=O)[O-])cc1`: the outcome was inactive. For the molecule `Cc1ccc(N=Nc2cc(C)c(N)c(N=Nc3ccc(N=Nc4cc(C(=O)O)c(O)c(S(=O)(=O)O)c4)c(C)c3)c2N)cc1`, the EC50 is 14.1 µM and the IC50 was > 100 µM.

`O=c1cc2[nH]cnc2c(O)[nH]1`: the EC50 was > 89.1 µM and the IC50 is > 89.1 µM.

Regarding `NC(=O)CCS(=O)(=O)O`, the EC50 was > 200 µM and the IC50 is > 200 µM.

For the molecule `O=C(NC1CCN(Cc2ccccc2)CC1)c1cccc(I)c1`, the EC50 was > 200 µM and the IC50 amounted to 33.9 µM. Taken in the same sequence, the figures for `Cc1ccc(C(=O)/C=C/c2ccc(N(C)C)cc2)cc1` were > 7.59 µM and > 7.59 µM. `O=c1c(F)cn(Cc2c(Cl)cccc2Cl)c(=O)n1Cc1c(Cl)cccc1Cl`: the EC50 is > 200 µM and the IC50 came out at 47.9 µM. For `Cc1cn(C2OC(COC(=O)c3ccccc3)C(OC(=O)c3ccccc3)C2I)c(=O)[nH]c1=O` (stereo unspecified) the same measures were > 200 µM and 37.2 µM. In the case of `COC(=O)[C@@]12CSC[C@]1(C(=O)OC)N[C@@H](c1ccccc1O)C2`, the EC50 was > 200 µM and the IC50 was > 200 µM. As for `Cc1ccc2c(c1)sc1n[nH]c(=S)n12`, the EC50 was > 117 µM and the IC50 was > 117 µM.

On to `CN(C)c1ccc(/C=N/n2c(-c3ccccc3)nc3ccccc3c2=O)cc1`, for which the EC50 is > 200 µM and the half-maximal inhibitory concentration (IC50) turned out to be 33.9 µM.

For the molecule `O=C(O)[C@H]1CSCN1C(=O)c1ccccc1SSc1ccccc1C(=O)N1CSC[C@H]1C(=O)O`, the EC50 is > 200 µM and the IC50 is > 200 µM. In the case of `CC1(C)CC(=O)C2=C(C1)NC(SSC1=C(C#N)C(c3ccc(Br)cc3)C3=C(CC(C)(C)CC3=O)N1)=C(C#N)C2c1ccc(Br)cc1` (stereo unspecified), the 50% effective concentration (EC50) is 36.3 µM and the IC50 is 52.5 µM.

On to `COC1=CC(=O)c2ccccc2C1(C)C1=NC(C)(C)CO1` (stereo unspecified), for which the EC50 is > 631 µM and the IC50 is > 631 µM. As for `Oc1ccc2c(c1)c1c(n2CCN2CCOCC2)-c2ccccc2CC1`, the EC50 was > 200 µM and the IC50 came to 30.2 µM. For `NC(=O)c1ncn(C2OC(CO)C(F)C2O)c1N` (stereo unspecified) the same measures were > 200 µM and > 200 µM. Taken in the same sequence, the figures for `CC(C)=NNC1=NC(C)(C)P(=O)(N2CCCC2C(=O)O)S1` (stereo unspecified) were > 135 µM and 132 µM. For `COC(=O)c1ccccc1CC1Cc2ccc3c(c2C1)CCC3` (stereo unspecified) the same measures were > 200 µM and 91.2 µM. Turning to `CC1(C)OC[C@H](COCOP2(=O)Oc3ccc4ccccc4c3-c3c(ccc4ccccc34)O2)O1`, the EC50 is > 200 µM and the IC50 worked out at 34.7 µM. For `CC1=CSC(O)(c2ccc(Cl)cc2)c2noc(=O)n21` (stereo unspecified) the same measures were > 200 µM and 112 µM.

`O=[N+]([O-])c1nccn1COCCO`: the EC50 is > 1320 µM and the IC50 is > 1320 µM. Take `CN1C(=O)c2ccccc2C(C(=O)O)C1c1ccc2c(c1)OCO2` (stereo unspecified): the EC50 is > 151 µM and the 50% inhibitory concentration (IC50) was > 151 µM. As for `Oc1ccc(/C=C/c2cc(O)cc3c2[C@@H](c2cc(O)cc4c2[C@H](c2cc(O)cc5c2[C@@H](c2cc(O)cc(O)c2)[C@H](c2ccc(O)cc2)O5)[C@@H](c2ccc(O)cc2)O4)[C@H](c2ccc(O)cc2)O3)cc1`, the EC50 is 12.3 µM and the IC50 was 15.8 µM. Taken in the same sequence, the figures for `Cc1ccc2ccc3c(-c4ccccc4)cc(C)nc3c2n1.Cc1ccc2ccc3c(-c4ccccc4)cc(C)nc3c2n1.O=C1OC(C(O)C[O-])C(O)=C1O.[Cu+]` were > 12.6 µM and 0.55 µM. Turning to `COCCOC(=O)NCn1cc(-c2ccccc2)nn1`, the EC50 was > 200 µM and the IC50 is > 200 µM. In the case of `CSCCC(NCc1c(O)ccc2ccc(=O)oc12)C(=O)O` (stereo unspecified), the EC50 was > 200 µM and the half-inhibitory concentration (IC50) is > 200 µM. As for `C=C1N(c2nc(Cl)nc(Cl)n2)c2ccccc2C1(C)C`, the EC50 was > 200 µM and the IC50 came to 186 µM. Taken in the same sequence, the figures for `OCCSCC/C(=N\N=C(/CCSCCO)c1ccccc1)c1ccccc1` were > 87.1 µM and 34.7 µM. With `CC1=NNC(=O)C1C1CC(c2c[nH]c3ccccc23)=NNC1=NCc1ccccc1` (stereo unspecified), the EC50 is 4.68 µM and the IC50 turned out to be 50.1 µM. For `Nc1nn2cc3c(nc2c1N=Nc1ccc(Cl)cc1)CCC3` the same measures were > 151 µM and > 100 µM. Taken in the same sequence, the figures for `COc1ccccc1C1OC2=C(Nc3ccccc3N2)C1=O` (stereo unspecified) were > 170 µM and > 170 µM. Take `COC(=O)c1cc(C)ccc1/C=C1\Cc2c(C)cc(C)cc2C1=O`: the outcome was inactive. Take `COC(=O)c1cc2c(cc1CC1Cc3cc4c(cc3C1)CCC4)CCC2`: the EC50 was > 200 µM and the IC50 was > 200 µM. For the molecule `[Pt].c1ccc([PH+](CC[PH+](CC[PH+](c2ccccc2)c2ccccc2)c2ccccc2)CC[PH+](c2ccccc2)c2ccccc2)cc1` (stereo unspecified), the EC50 is > 15.8 µM and the IC50 is 12.6 µM. For `C[CH2][Sn]([CH2]C)([O]C(=O)c1ccc(F)cc1)[O]C(=O)c1ccc(F)cc1` the same measures were > 110 µM and 3.63 µM.

Source of the values: PubChem BioAssay AID179 (DTP/NCI, 2004).
